Reference: ChEMBL document CHEMBL4888484, “Replenishing the malaria drug discovery pipeline: Screening and hit evaluation of the MMV Hit Generation Library 1 (HGL1) against asexual blood stage Plasmodium falciparum ,using a nano luciferase reporter read-out” (2022)

How the values were obtained:
Plasmodium falciparum [1] = test: Hit confirmation in dose-response curve in NF54 pLDH assay, at 72h; format: functional, organism-based; parameters: timepoint 72 hour; details: NF54, Erythrocyte
Plasmodium falciparum [2] = test: Re-testing in dose-response curve in 3D7 pLDH assay, at 72h; format: functional, organism-based; parameters: timepoint 72 hour; details: 3D7, Erythrocyte
[3] = Re-testing in dose-response curve in HepG2 cytotoxicity assay, at 72h; format: toxicity, cell-based; parameters: timepoint 72 hour; details: human, HepG2 cells
[4] = Hit confirmation in dose-response curve in HepG2 cytotoxicity assay, at 72h; format: toxicity, cell-based; parameters: timepoint 72 hour; details: human, HepG2 cells
Plasmodium falciparum [5] = test: Hit confirmation in dose-response curve in NF54 nanoGlo assay, at 72h; format: functional, organism-based, Erythrocyte; parameters: timepoint 72 hour
Plasmodium falciparum [6] = test: Hit confirmation in dose-response curve in NF54 nanoGlo assay, at 12h; format: functional, organism-based, Erythrocyte; parameters: timepoint 12 hour
Plasmodium falciparum [7] = test: Hit confirmation in dose-response curve in Dd2 pLDH assay, at 72h; format: functional, organism-based; parameters: timepoint 72 hour; details: Dd2, Erythrocyte
[8] = Plasmodium falciparum, NF54, Erythrocyte, 72 h
[9] = Plasmodium falciparum, NF54, Erythrocyte, 12 h

SMILES	IC50 (Plasmodium falciparum [1]) [nM]	IC50 (Plasmodium falciparum [2]) [nM]	IC50 at 72 h [3] [nM]	IC50 at 72 h [4] [nM]	IC50 (Plasmodium falciparum [5]; erythrocyte) [nM]	IC50 (Plasmodium falciparum [6]; erythrocyte) [nM]	IC50 (Plasmodium falciparum [7]) [nM]	IC50 (Plasmodium falciparum [5]; [8]) [nM]	IC50 (Plasmodium falciparum [6]; [9]) [nM]
CC(C)c1ccc(-c2nc(CN3CCCCC3)cc(CN3CCCCC3)c2O)cc1	2400	1130	> 25000	> 10000	813	1170	1230	–	–
CCN1CCN(c2cccc(NC(=O)c3cc(F)cc4c(=O)c5cc(F)ccc5[nH]c34)c2)CC1	1380	609	3480	> 10000	–	–	1170	912	1320
Cc1cccc(CN(Cc2cccc(C)n2)C[C@H]2CCCCO2)n1	676	1320	> 25000	> 10000	–	–	275	229	2340
O=C(Nc1cnc2ccccc2c1)c1ccccc1C(=O)c1ccc(F)cc1	2570	1390	> 25000	> 10000	–	–	955	490	631
c1cc(N2CC[C@@]3(CCCNC3)C2)c2sccc2n1	389	580	> 14200	> 10000	–	–	398	479	617
CCn1cnc2c(N3CCC[C@H](c4ccncc4)C3)ncnc21	794	663	> 25000	> 10000	–	–	708	1000	8910
COc1ccc2nc(O)c(C(=O)Nc3ccc4c(c3F)CCNC4)cc2c1	1100	845	2270	5620	–	–	1000	776	1450
COc1ccc(F)cc1S(=O)(=O)N1CCc2noc(N)c2C1	912	> 25000	> 25000	> 10000	–	–	955	158	> 10000
CCc1nc2c(C(=O)N3CCOc4c(C)cc(C)cc43)ccnc2[nH]1	4270	234	> 25000	> 10000	–	–	1290	1410	> 10000
O=S(=O)(Nc1ccc(O)c2cccnc12)N1CCCC1	1320	10500	12500	> 10000	–	–	1450	2690	10000
CN1CC[C@]2(CCN(c3ccnc4ccsc34)C2)C1	380	461	> 24800	> 10000	–	–	407	550	912
O=C(Nc1cc(N2CCCS2(=O)=O)ccc1O)c1cccc(Oc2cccc(C(F)(F)F)c2)c1	1100	416	20800	> 10000	–	–	537	355	501
CC(C)c1ccc2ncnc(N[C@H]3CCc4[nH]cnc4C3)c2c1	1000	534	> 25000	> 10000	–	–	589	589	2400
CN1CCCN(c2ccc(NC(=O)c3nn(-c4ccccc4)c(=O)c4ccccc34)cc2F)CC1	2100	1150	7350	> 10000	–	–	1910	1380	2510
Cc1ccc(O)c(CNCC2(c3ccccc3Cl)CCOCC2)n1	575	444	> 25000	> 10000	–	–	437	209	316
O=S(=O)(NC12CCCC1CNC2)c1onc(C2CC2)c1Cl (configuration not stated)	1480	10500	> 25000	> 10000	–	–	1150	891	1620
